The values below come from patent US9624269B2, “Peptide inhibitors of BACE1” (GENENTECH, INC., priority 2011, dated 2017).

The target in one assay is rhBACE2 (Homo sapiens, UniProt Q9Y5Z0). As to the kind of experiment: BACE2 activity assay (microfluidic capillary electrophoresis). It counts as biochemical. Particulars: 5 nM rhBACE2. On the procedure: (§1) BACE1, BACE2 and Cathepsin D Activity Assay Using Microfluidic Capillary Electrophoresis (MCE).
(§2) BACE1, BACE2, and Cathepsin D reactions were carried out in a final volume of 20 μl per well in a 384-well microplate using a Caliper LabChip 3000 (Hopkinton, Mass.). A standard enzymatic reaction, initiated by the addition of 10 μ12× substrate to 5 μl of 4× enzyme and 5 μl of 4× peptide or small molecule inhibitor, contained 12 nM rhBACE1, 1 μM FAM-[…]-amide (SEQ ID NO: 20), 50 mM NaOAc, pH 4.4, 0.1% CHAPS. The same reaction conditions were used for rhBACE2 (5 nM) and Cathepsin D (6 nM) (Cat. No. 219394; EMD Biosciences, San Diego, Calif.). After incubation for 60 min at room temperature, the product and substrate in each reaction were separated using a 12-sipper microfluidic chip. Separation of product and substrate was optimized by choosing voltages and pressure using the Caliper Optimizer software. The separation buffer contained 100 mM HEPES, pH 7.2, 0.015% Brij-35, 0.1% Coating Reagent #3, 10 mM EDTA and 5% DMSO. The separation conditions used a downstream voltage of −500 V, an upstream voltage of −2250 V, and a screening pressure of −1.2 psi. The product and substrate fluorescence was excited at 488 nm and detected at 530 nm. Substrate conversion was calculated from the electrophoregram using the Caliper HTS Well Analyzer software.

For assay [1], the system named is Aβ1-40 production in 293-hAPP cells. In words: Aβ1-40 assay in 293-hAPP cells. It counts as cell-based, human. The settings on record: 293-HEK cells stably transfected with APP, 24 h. On the procedure:
Aβ1-40 Assay in 293-hAPP Cells.
Aβ1-40 production was measured in 293-HEK cells stably expressing wild-type human APP(695) complementary DNA (cDNA) (293-hAPP). Cells were seeded overnight at 3×10^4 cells per well in a 96-well plate. Fresh media [Dulbecco's modified Eagle's medium (DMEM)+10% fetal bovine serum (FBS)] containing various inhibitors were incubated with the 293-hAPP cells for 24 h. The cellular medium was harvested and assayed for the presence of Aβ1-40 with an Aβ1-40 HTRF assay (CisBio) according to the manufacturer's instructions. Aβ1-40 values were normalized for cell viability, as determined with the CellTiter-Glo Luminescent Cell Viability Assay (Promega). Experiments were performed at least 3 times, and each point in each experiment was repeated in duplicate. Data was plotted with a 4-parameter nonlinear regression curve-fitting program (KaleidaGraph, Synergy Software).

A further assay addresses human BACE1 (rhBACE1) (Homo sapiens, UniProt P56817). In words: Caliper BACE1 activity assay (microfluidic capillary electrophoresis). The class given is biochemical. Further details: containing human BACE1 (extracellular domain). The method, then: An MCE assay reactions can be carried out in a standard enzymatic reaction, initiated by the addition of substrate to enzyme and 4× compound, containing human BACE1 (extracellular domain), amyloid precursor protein beta secretase active site peptide (FAM-[…]-CONH2 (SEQ ID NO: 20)), 50 mM NaOAc pH 4.4 and 0.1% CHAPS. After incubation for 60 minutes at ambient temperature, the product and substrate in each reaction is separated using a 12-sipper microfluidic chip analyzed on an LC3000® (both, Caliper Life Sciences). The separation of product and substrate is optimized by choosing voltages and pressure using the manufacturer's optimization software. Substrate conversion is calculated from the electrophoregram using HTS Well Analyzer software (Caliper Life Sciences).
as §1, §2

For a further assay, the target named is T1, Cathepsin D (Homo sapiens, UniProt P07339).
T1 construct: purchased EMD Biosciences, San Diego, Calif; 219394
T1 sequence (P07339 65-412, species assumed): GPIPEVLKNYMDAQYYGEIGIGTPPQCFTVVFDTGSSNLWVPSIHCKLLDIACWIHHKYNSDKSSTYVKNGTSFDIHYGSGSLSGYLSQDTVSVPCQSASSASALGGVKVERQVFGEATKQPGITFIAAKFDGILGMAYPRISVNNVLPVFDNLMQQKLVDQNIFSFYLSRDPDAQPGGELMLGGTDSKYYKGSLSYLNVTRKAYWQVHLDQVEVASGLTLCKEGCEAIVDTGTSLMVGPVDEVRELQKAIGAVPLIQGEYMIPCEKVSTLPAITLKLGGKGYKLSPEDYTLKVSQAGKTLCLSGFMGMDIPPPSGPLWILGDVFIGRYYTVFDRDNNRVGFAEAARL
As to the kind of experiment: Cathepsin D activity assay (microfluidic capillary electrophoresis). It counts as biochemical. The settings on record: 6 nM Cathepsin D. On the procedure: as §1, §2

Broadly, the IC50 is the point on the concentration scale where inhibition reaches its midpoint. A high value points to lower potency.

Positions of bridges follow the written chain, without caps; N, C: chain ends. Residues, ends and D or L forms follow the SMILES beside them.

Chain of human BACE1 (rhBACE1) (P56817 46-457 limits assumed): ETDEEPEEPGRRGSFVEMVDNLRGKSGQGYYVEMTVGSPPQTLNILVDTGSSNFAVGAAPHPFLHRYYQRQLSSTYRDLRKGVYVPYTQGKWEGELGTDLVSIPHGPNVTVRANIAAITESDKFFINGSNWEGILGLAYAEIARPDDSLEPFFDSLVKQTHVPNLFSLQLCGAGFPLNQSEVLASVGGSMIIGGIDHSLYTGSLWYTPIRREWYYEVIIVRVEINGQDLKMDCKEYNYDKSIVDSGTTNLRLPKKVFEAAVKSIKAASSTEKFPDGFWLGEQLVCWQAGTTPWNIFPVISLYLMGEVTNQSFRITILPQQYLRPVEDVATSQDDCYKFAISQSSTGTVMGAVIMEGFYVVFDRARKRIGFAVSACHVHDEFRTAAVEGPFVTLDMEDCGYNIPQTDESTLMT
Chain of rhBACE2 (Q9Y5Z0 63-518): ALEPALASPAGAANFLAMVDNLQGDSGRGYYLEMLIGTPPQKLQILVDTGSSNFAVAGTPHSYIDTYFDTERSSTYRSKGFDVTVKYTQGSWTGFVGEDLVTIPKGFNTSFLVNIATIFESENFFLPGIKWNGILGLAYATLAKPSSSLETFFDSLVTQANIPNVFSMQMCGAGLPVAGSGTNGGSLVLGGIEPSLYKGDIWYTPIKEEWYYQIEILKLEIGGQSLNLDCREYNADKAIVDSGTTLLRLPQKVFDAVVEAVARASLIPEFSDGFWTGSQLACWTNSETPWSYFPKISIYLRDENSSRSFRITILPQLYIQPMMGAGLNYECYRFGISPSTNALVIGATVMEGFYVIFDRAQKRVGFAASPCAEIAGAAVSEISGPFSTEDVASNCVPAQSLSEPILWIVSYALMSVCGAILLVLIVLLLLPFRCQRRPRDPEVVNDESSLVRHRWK

For the molecule `CC[C@H](C)[C@@H]1NC(=O)CNC(=O)[C@H](CC(C)C)NC(=O)[C@H](CC(C)C)NC(=O)[C@H](CCCNC(=N)N)NC(=O)[C@@H](NC(=O)[C@H](Cc2ccc(O)cc2)NC(=O)[C@H](CCSC)NC(=O)[C@H](CO)NC(=O)[C@H](CCC(=O)O)NC(C)=O)CSSC[C@@H](C(=O)NCC(N)=O)NC(=O)CNC1=O` [BACE030] (Ac-ESMYCRLLGIGCG-NH2; disulfide 5-12), on rhBACE2, the “Inhibition of BACE2” value is “no inhibition”. The “Inhibition of Aβ production in cells (in words)” value in assay [1] was “potent inhibition”. This molecule also yielded a concentration for half-maximal inhibition (IC50) at human BACE1 (rhBACE1) (12 nM rhBACE1, 1 μM FAM-substrate, pH 4.4) of 18 ± 7 nM. Moreover, at human BACE1 (rhBACE1) (competition binding and enzymatic assays), the “peptide activity (in words)” value is “full activity”. Moreover, the “Inhibition of Cathepsin D” value at Cathepsin D is “no inhibition”.
